# Reference: patent publication US20080124285A1, “Merocyanine Derivatives for Cosmetic Use” (priority 2003, published 2008)
# Experiment: UV absorption maximum (λmax) in solvent
# Format: physicochemical
# Details: acetonitril; preparation example
row,λmax [nm],SMILES
1,389,CCOC(=O)/C(C#N)=C1\C=C(NCCNC2=C/C(=C(/C#N)C(=O)OCC)CC(C)(C)C2)CC(C)(C)C1 [MC02]

# Same assay, conditions: ethanol; preparation example
row,λmax [nm],SMILES
1,406,CCOC(=O)/C(C#N)=C1\C=C(N2CCN(C3=C/C(=C(/C#N)C(=O)OCC)CC(C)(C)C3)CC2)CC(C)(C)C1 [MC07]
2,373,CCOC(=O)C(C(=O)OCC)=C1C=C(NC2CCCCC2NC2=CC(=C(C(=O)OCC)C(=O)OCC)CC(C)(C)C2)CC(C)(C)C1 (centres unmarked) [MC10]

# Same assay, conditions: in Acetonitril; Table MC1a (intermediates, UV-B absorbers)
row,λmax [nm],SMILES
1,295(Acetonitril) nm,CC1(C)CC(=O)C=C(NC2CCCCC2NC2=CC(=O)CC(C)(C)C2)C1 (centres unmarked) [MC08a]

# Same assay, conditions: in Acetonitrile; Table MC1
row,λmax [nm],SMILES
1,383(Aceto-nitrile) nm,CC1(C)CC(NCC2(C)CC(NC3=CC(=C(C#N)C#N)CC(C)(C)C3)CC(C)(C)C2)=CC(=C(C#N)C#N)C1 (centres unmarked) [MC37]

# Same assay, conditions: in EtOH; Table MC1
row,λmax [nm],SMILES
1,406(EtOH) nm,CCOC(=O)/C(C#N)=C1\C=C(N2CCN(C3=C/C(=C(/C#N)C(=O)OCC)CC(C)(C)C3)CC2)CC(C)(C)C1 [MC07]
2,373(EtOH) nm,CCOC(=O)C(C(=O)OCC)=C1C=C(N2CCN(C3=CC(=C(C(=O)OCC)C(=O)OCC)CC(C)(C)C3)CC2)CC(C)(C)C1 [MC08]
3,391(EtOH) nm,CCOC(=O)/C(C#N)=C1\C=C(NC2CC(C)(C)CC(C)(CNC3=C/C(=C(\C#N)C(=O)OCC)CC(C)(C)C3)C2)CC(C)(C)C1 (centres unmarked) [MC24]
4,388(EtOH) nm,CCOC(=O)/C(C#N)=C1\C=C(NCCCCCCNC2=C/C(=C(/C#N)C(=O)OCC)CCC2)CCC1 [MC18]
5,389(EtOH) nm,COC(=O)C(C(=O)OC)=C1C=C(NC2CCCCC2NC2=CC(=C(C(=O)OC)C(=O)OC)CCC2)CCC1 (centres unmarked) [MC35]
6,378(EtOH) nm,CCOC(=O)C(C(=O)OCC)=C1C=C(NCC2(C)CC(NC3=CC(=C(C(=O)OCC)C(=O)OCC)CC(C)(C)C3)CC(C)(C)C2)CC(C)(C)C1 (centres unmarked) [MC25]
7,357/388(EtOH),CC1(C)CC(NC2CCCCC2NC2=CC(=C(C#N)C#N)CC(C)(C)C2)=CC(=C(C#N)C#N)C1 (centres unmarked) [MC34]
8,370(EtOH) nm,CCOC(=O)C(C(=O)OCC)=C1C=C(NCCCCCCNC2=CC(=C(C(=O)OCC)C(=O)OCC)CCC2)CCC1 [MC19]
9,401(EtOH) nm,CCCCC(CC)COC(=O)/C(C#N)=C1/C=C(NC2CCCCC2NC2=C/C(=C(\C#N)C(=O)OCC(CC)CCCC)CCC2)CCC1 (centres unmarked) [MC36]
10,"366,398(EtOH) nm",CCCCC(CC)COC(=O)/C(C#N)=C1/C=C(NCCNC2=C/C(=C(\C#N)C(=O)OCC(CC)CCCC)CC(C)(C)C2)CC(C)(C)C1 (centres unmarked) [MC01]
11,383(EtOH) nm,CCOC(=O)C(C(=O)OCC)=C1C=C(NCCNC2=CC(=C(C(=O)OCC)C(=O)OCC)CC(C)(C)C2)CC(C)(C)C1 [MC03]
12,"366,398(EtOH) nm",CCOC(=O)/C(C#N)=C1\C=C(NCCNC2=C/C(=C(/C#N)C(=O)OCC)CC(C)(C)C2)CC(C)(C)C1 [MC02]
13,384(EtOH) nm,CCOC(=O)C(C(=O)OCC)=C1C=C(NC2CCCCC2NC2=CC(=C(C(=O)OCC)C(=O)OCC)CC(C)(C)C2)CC(C)(C)C1 (centres unmarked) [MC10]

# Same assay, conditions: in EtOH; Table MC1a (intermediates, UV-B absorbers)
row,λmax [nm],SMILES
1,309 (EtOH) nm,CC1(C)CC(=O)C=C(N2CCN(C3=CC(=O)CC(C)(C)C3)CC2)C1 [MC06a]
2,296 (EtOH) nm,CC1(C)CC(=O)C=C(NCCNC2=CC(=O)CC(C)(C)C2)C1 [MC01a]
